The experiment has as its target T1, LXRα (Homo sapiens, UniProt Q13133).
T1 construct: expressed in transfected cells; host or cells: 293 cells
T1 sequence (Q13133 209-447 limits assumed): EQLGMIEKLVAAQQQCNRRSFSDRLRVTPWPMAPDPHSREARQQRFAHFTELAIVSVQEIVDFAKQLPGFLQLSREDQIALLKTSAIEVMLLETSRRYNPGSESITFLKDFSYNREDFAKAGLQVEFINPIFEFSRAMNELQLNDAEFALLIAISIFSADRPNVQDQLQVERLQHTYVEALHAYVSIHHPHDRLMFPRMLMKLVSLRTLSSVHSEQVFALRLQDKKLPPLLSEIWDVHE
Briefly: cell-based GAL4-LXRα ligand-binding domain luciferase reporter screen for agonists. The following applies: 10 μM compound; transfected 293 cells; relative to control (no additional compound) assigned a value of 1. As to the method:
In order to identify agonists for LXRα, a cell-based high throughput screen was developed. Briefly, a DNA-binding domain of the nonreceptor transcription factor GAL4 was fused to the putative ligand-binding domain of LXRα. The resulting construct was introduced into 293 cells, together with an UAS-containing luciferase reporter construct. The transfected cells were then treated with the compounds and luciferase activity was measured. Individual compounds were evaluated relative to a control (no additional compound) at a concentration of 10 μM. Relative luciferase activity is provided below for five of the compounds described in the Examples above (luciferase activity of the control was assigned a value of 1).
In general terms: In a reporter assay the amount or activity of a reporter protein is the signal.
Regarding `CC(c1ccco1)N(C(=O)C12CC3CC(CC(C3)C1)C2)c1ccccn1` (centres unmarked) [Example 1], the “Relative Activity (relative luciferase activity)” value came out at 4.
Regarding `CC(c1ccco1)N(C(=O)C12CC3CC(CC(C3)C1)C2)c1cccnc1` (centres unmarked) [Example 2], the “Relative Activity (relative luciferase activity)” value came to 5.
Then `CC(c1ccco1)N(C(=O)C12CC3CC(CC(C3)C1)C2)c1ccncc1` (centres unmarked) [Example 3], with “≧10”; and `CC(c1ccco1)N(C(=O)C12CC3CC(CC(C3)C1)C2)c1ccccc1` (centres unmarked) [Example 4], with 3.
Then `CC(c1ccccn1)N(C(=O)C1(C)CCCCC1)C(C)c1ccco1` (centres unmarked) [Example 5], with “≧10”.

The record behind these values is patent publication US6906069B1, “LXR modulators” (Amgen Inc., priority 1999, dated 2005).
